Assay results from PMC3914206.

Experiments:
Type in all cases: binding
Settings in all cases: Compound Concentration 10 µM
panel of 442 kinases [1] = target: T1, panel of 442 kinases (Homo sapiens, UniProt P00519, Y253F)
T1 construct: purchased KINOMEscan
Description: (§1) We assessed the selectivity of members of this scaffold using the KINOMEscan methodology across a near comprehensive panel of 442 kinases [[18,27]].

panel of 442 kinases [2] = target: T2, panel of 442 kinases (Homo sapiens, UniProt P42336, H1047L)
T2 construct: purchased KINOMEscan
Description: as §1

panel of 442 kinases [3] = target: T3, panel of 442 kinases (Homo sapiens, UniProt P42336, M1043I)
T3 construct: purchased KINOMEscan
Description: as §1

T2 sequence (P42336 whole entry H1047L): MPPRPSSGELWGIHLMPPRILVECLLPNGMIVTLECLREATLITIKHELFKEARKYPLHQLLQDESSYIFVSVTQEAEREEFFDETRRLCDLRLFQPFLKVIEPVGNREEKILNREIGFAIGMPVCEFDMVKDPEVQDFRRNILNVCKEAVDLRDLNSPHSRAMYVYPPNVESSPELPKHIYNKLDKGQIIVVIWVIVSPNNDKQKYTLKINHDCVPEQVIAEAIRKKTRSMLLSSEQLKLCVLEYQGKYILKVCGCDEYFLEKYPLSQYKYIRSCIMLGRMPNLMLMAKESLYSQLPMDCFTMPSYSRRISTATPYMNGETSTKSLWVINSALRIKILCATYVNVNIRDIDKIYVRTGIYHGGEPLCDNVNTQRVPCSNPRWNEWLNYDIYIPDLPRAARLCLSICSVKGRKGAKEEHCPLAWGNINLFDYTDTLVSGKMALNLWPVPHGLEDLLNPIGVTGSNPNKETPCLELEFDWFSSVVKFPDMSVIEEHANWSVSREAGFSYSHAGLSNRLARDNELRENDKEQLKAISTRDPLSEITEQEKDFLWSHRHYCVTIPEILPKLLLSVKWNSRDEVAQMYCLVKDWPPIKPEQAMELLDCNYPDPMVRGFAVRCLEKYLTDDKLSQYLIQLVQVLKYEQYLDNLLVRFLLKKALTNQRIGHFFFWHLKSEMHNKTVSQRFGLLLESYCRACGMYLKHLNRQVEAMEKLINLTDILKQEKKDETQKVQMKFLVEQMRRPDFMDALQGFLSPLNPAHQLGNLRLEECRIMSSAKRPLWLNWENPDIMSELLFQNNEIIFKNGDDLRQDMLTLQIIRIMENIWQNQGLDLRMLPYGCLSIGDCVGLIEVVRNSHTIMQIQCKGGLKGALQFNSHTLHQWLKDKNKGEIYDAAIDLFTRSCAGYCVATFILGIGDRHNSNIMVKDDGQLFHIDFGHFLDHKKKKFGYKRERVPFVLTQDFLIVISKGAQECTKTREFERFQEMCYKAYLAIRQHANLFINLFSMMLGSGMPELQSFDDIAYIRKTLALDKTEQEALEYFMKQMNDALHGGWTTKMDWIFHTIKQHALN
T3 sequence (P42336 whole entry M1043I): as the sequence (P42336 whole entry H1047L) above, with M1043I, L1047H counted along it

Row | Structure (SMILES) | KINOMEscan: ABL1(Y253F)-phosphorylated (panel of 442 kinases [1]) | KINOMEscan: PIK3CA(H1047L) (panel of 442 kinases [2]) | KINOMEscan: PIK3CA(M1043I) (panel of 442 kinases [3])
1 | COc1cc(C(=O)N2CCC(N3CCN(C)CC3)CC2)ccc1Nc1ncc2c(n1)N(C1CCCC1)c1ccccc1C(=O)N2C [Compound 25, 11-cyclopentyl-2-((2-methoxy-4-(4-(4-methylpiperazin-1-yl)piperidine-1-carbonyl)phenyl)amino)-5-methyl-5H-benzo[e]pyrimido[5,4-b][1,4]diazepin-6(11H)-one] | 60 | 100 | 93
2 | COc1cc(C(=O)N2CCC(N3CCN(C)CC3)CC2)ccc1Nc1ncc2c(n1)N1CCc3cccc(c31)C(=O)N2C [Compound 24] | – | 94 | 66
3 | COc1cc(C(=O)N2CCC(N3CCN(C)CC3)CC2)ccc1Nc1ncc2c(n1)N(C)c1ccccc1C(=O)N2C [15 (LRRK2-IN-1)] | 89 | 20 | 65
4 | CCOc1cc(C(=O)N2CCC(N3CCN(C)CC3)CC2)ccc1Nc1ncc2c(n1)N(C1CCCC1)c1ccccc1C(=O)N2C [Compound 26] | 100 | 90 | 92
